Target: Beta-3 Adrenergic Receptor (Homo sapiens (Human), UniProt P13945)
Assay: Homogeneous Time-Resolved Fluorescence (HTRF) cAMP antagonist assay, IC50 determination
Assay type: cell-based
Details: CHO-K1 cells stably expressing recombinant receptor, isoproterenol at EC90
Experimental: HTRF cAMP assays were performed according to manufacturer's instructions (Cisbio, cAMP Dynamic 2 Assay Kit; #62AM4PEJ). CHO-K1 cells stably expressing recombinant receptor were harvested and suspended in warm PBS to make a 300,000 cells/mL stock. This cell suspension was dispensed into 384 well assay plates (PerkinElmer ProxiPlate #6008280) at 5 μL per well (1500 cells/well) along with a cAMP standard curve.
Compounds were dissolved and serially diluted (5-fold) in DMSO to generate a 10-point dose response stock. The stock was then diluted 100-fold in assay buffer (PBS containing 1 mM IBMX) before a volume of 2.5 μL was added to the cells (the final, top concentration of compound in the dose-response is typically 10 or 100 μM). After a brief incubation, 2.5 μL of isoproterenol stock, prepared at a concentration 4 times its EC90 at the receptor of interest, was added to the wells. The EC90 for isoproterenol, a beta-adrenergic agonist, was determined in separate experiments using standard methods to measure agonist potencies.
Following a 1-hour incubation at room temperature, 5 μL of cAMP-D2 Reagent diluted in Lysis Buffer was added to each well followed by 5 μL of Cryptate Reagent. Plates were further incubated at room temperature for 1 hour prior to reading. Time resolved fluorescence measurements were collected on a suitable, HTRF-capable plate reader.
Counts from the plate reader were fit to the cAMP standard curve on the assay plate in order to determine cAMP concentrations in each well, and these values were used to construct dose-response curves to obtain IC50 values.

Chain of Beta-3 Adrenergic Receptor (P13945 whole entry, species assumed): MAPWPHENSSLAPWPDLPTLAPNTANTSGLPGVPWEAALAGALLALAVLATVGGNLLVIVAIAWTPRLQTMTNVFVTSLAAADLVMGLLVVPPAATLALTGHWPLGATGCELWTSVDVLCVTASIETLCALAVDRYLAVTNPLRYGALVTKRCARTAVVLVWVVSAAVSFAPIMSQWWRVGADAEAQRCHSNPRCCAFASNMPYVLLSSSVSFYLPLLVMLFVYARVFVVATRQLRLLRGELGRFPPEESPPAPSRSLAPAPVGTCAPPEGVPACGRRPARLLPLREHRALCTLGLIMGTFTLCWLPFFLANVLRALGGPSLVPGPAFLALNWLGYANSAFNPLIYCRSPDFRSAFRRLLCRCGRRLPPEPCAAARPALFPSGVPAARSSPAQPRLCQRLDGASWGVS

Row | SMILES | IC50 [µM]
1 | O=S(=O)(NCCCO)c1cccc(OC[C@@H](O)CNC2COC3(CCN(S(=O)(=O)c4ccc5ccccc5c4)CC3)C2)c1 (stereo partly drawn) [Compound 51, 3-((2S)-2-hydroxy-3-(8-(naphthalen-2-ylsulfonyl)-1-oxa-8-azaspiro[4.5]decan-3-ylamino)propoxy)-N-(3-hydroxypropyl)benzenesulfonamide] | 0.0585
2 | CNS(=O)(=O)c1cccc(OC[C@@H](O)CNC2COC3(CCN(S(=O)(=O)c4ccc(Br)cc4)CC3)C2)c1 (stereo partly drawn) [Compound 52, 3-((2S)-3-(8-(4-bromophenylsulfonyl)-1-oxa-8-azaspiro[4.5]decan-3-ylamino)-2-hydroxypropoxy)-N-methylbenzenesulfonamide] | 0.0141
3 | CNS(=O)(=O)c1cccc(OC[C@@H](O)CNC2COC3(CCN(S(=O)(=O)c4ccc(C)cc4)CC3)C2)c1 (stereo partly drawn) [Compound 53, 3-((2S)-2-hydroxy-3-(8-tosyl-1-oxa-8-azaspiro[4.5]decan-3-ylamino)propoxy)-N-methylbenzenesulfonamide] | 0.0218
4 | CNS(=O)(=O)c1cccc(OC[C@@H](O)CNC2COC3(CCN(S(=O)(=O)c4ccccc4Br)CC3)C2)c1 (stereo partly drawn) [Compound 54, 3-((2S)-3-(8-(2-bromophenylsulfonyl)-1-oxa-8-azaspiro[4.5]decan-3-ylamino)-2-hydroxypropoxy)-N-methylbenzenesulfonamide] | 0.0174
5 | CNS(=O)(=O)c1cccc(OC[C@@H](O)CNC2COC3(CCN(S(=O)(=O)c4cccc5ccccc45)CC3)C2)c1 (stereo partly drawn) [Compound 55, 3-((2S)-2-hydroxy-3-(8-(naphthalen-1-ylsulfonyl)-1-oxa-8-azaspiro[4.5]decan-3-ylamino)propoxy)-N-methylbenzenesulfonamide] | 0.018
6 | CNS(=O)(=O)c1cccc(OC[C@@H](O)CNC2COC3(CCN(S(=O)(=O)c4cccc(C(=O)O)c4)CC3)C2)c1 (stereo partly drawn) [Compound 56, 3-(3-((S)-2-hydroxy-3-(3-(N-methylsulfamoyl)phenoxy)propylamino)-1-oxa-8-azaspiro[4.5]decan-8-ylsulfonyl)benzoic acid] | 0.387
7 | CNS(=O)(=O)c1cccc(OC[C@@H](O)CNC2COC3(CCN(S(=O)(=O)c4ccc(OC(F)(F)F)cc4)CC3)C2)c1 (stereo partly drawn) [Compound 57, 3-((2S)-2-hydroxy-3-(8-(4-(trifluoromethoxy)phenylsulfonyl)-1-oxa-8-azaspiro[4.5]decan-3-ylamino)propoxy)-N-methylbenzenesulfonamide] | 0.0317
8 | CNS(=O)(=O)c1cccc(OC[C@@H](O)CNC2COC3(CCN(S(=O)(=O)c4ccc5[nH]c(=O)sc5c4)CC3)C2)c1 (stereo partly drawn) [Compound 58, 3-((2S)-2-hydroxy-3-(8-(2-oxo-2,3-dihydrobenzo[d]thiazol-6-ylsulfonyl)-1-oxa-8-azaspiro[4.5]decan-3-ylamino)propoxy)-N-methylbenzenesulfonamide] | 0.043
9 | CNS(=O)(=O)c1cccc(OC[C@@H](O)CNC2COC3(CCN(S(=O)(=O)c4cccc(-c5c(C)noc5C)c4)CC3)C2)c1 (stereo partly drawn) [Compound 59, 3-((2S)-3-(8-(3-(3,5-dimethylisoxazol-4-yl)phenylsulfonyl)-1-oxa-8-azaspiro[4.5]decan-3-ylamino)-2-hydroxypropoxy)-N-methylbenzenesulfonamide] | 0.0145
10 | COCCN(C)S(=O)(=O)c1cccc(OC[C@@H](O)CNC2COC3(CCN(S(=O)(=O)c4ccc5ccccc5c4)CC3)C2)c1 (stereo partly drawn) [Compound 60, 3-((2S)-2-hydroxy-3-(8-(naphthalen-2-ylsulfonyl)-1-oxa-8-azaspiro[4.5]decan-3-ylamino)propoxy)-N-(2-methoxyethyl)-N-methylbenzenesulfonamide] | 0.0588
11 | CNS(=O)(=O)c1cccc(OC[C@@H](O)CNC2COC3(CCN(S(=O)(=O)c4cccc(-c5cnn(C)c5)c4)CC3)C2)c1 (stereo partly drawn) [Compound 61, 3-((2S)-2-hydroxy-3-(8-(3-(1-methyl-1H-pyrazol-4-yl)phenylsulfonyl)-1-oxa-8-azaspiro[4.5]decan-3-ylamino)propoxy)-N-methylbenzenesulfonamide] | 0.0135
12 | CNS(=O)(=O)c1cccc(OC[C@@H](O)CNC2COC3(CCN(S(=O)(=O)c4cccc(-c5cn(C)nc5C(F)(F)F)c4)CC3)C2)c1 (stereo partly drawn) [Compound 62, 3-((2S)-2-hydroxy-3-(8-(3-(1-methyl-3-(trifluoromethyl)-1H-pyrazol-4-yl)phenylsulfonyl)-1-oxa-8-azaspiro[4.5]decan-3-ylamino)propoxy)-N-methylbenzenesulfonamide] | 0.0449
13 | CNS(=O)(=O)c1cccc(OC[C@@H](O)CNC2COC3(CCN(S(=O)(=O)c4cccc(-c5cc[nH]c5)c4)CC3)C2)c1 (stereo partly drawn) [Compound 63, 3-((2S)-3-(8-(3-(1H-pyrrol-3-yl)phenylsulfonyl)-1-oxa-8-azaspiro[4.5]decan-3-ylamino)-2-hydroxypropoxy)-N-methylbenzenesulfonamide] | 0.0193
14 | CNS(=O)(=O)c1cccc(OC[C@@H](O)CNC2COC3(CCN(S(=O)(=O)c4cccc(-c5cn[nH]c5)c4)CC3)C2)c1 (stereo partly drawn) [Compound 64, 3-((2S)-3-(8-(3-(1H-pyrazol-4-yl)phenylsulfonyl)-1-oxa-8-azaspiro[4.5]decan-3-ylamino)-2-hydroxypropoxy)-N-methylbenzenesulfonamide] | 0.0111
15 | CNS(=O)(=O)c1cccc(OC[C@@H](O)CNC2COC3(CCN(S(=O)(=O)c4cccc(-c5cccc(COC)c5)c4)CC3)C2)c1 (stereo partly drawn) [Compound 65, 3-((2S)-2-hydroxy-3-(8-(3′-(methoxymethyl)biphenyl-3-ylsulfonyl)-1-oxa-8-azaspiro[4.5]decan-3-ylamino)propoxy)-N-methylbenzenesulfonamide] | 0.0856
16 | CNS(=O)(=O)c1cccc(OC[C@@H](O)CNC2COC3(CCN(S(=O)(=O)c4cccc(-c5ccsc5)c4)CC3)C2)c1 (stereo partly drawn) [Compound 66, 3-((2S)-2-hydroxy-3-(8-(3-(thiophen-3-yl)phenylsulfonyl)-1-oxa-8-azaspiro[4.5]decan-3-ylamino)propoxy)-N-methylbenzenesulfonamide] | 0.0227
17 | CNS(=O)(=O)c1cccc(OC[C@@H](O)CNC2COC3(CCN(S(=O)(=O)c4cccc(-c5cccc(CN)c5)c4)CC3)C2)c1 (stereo partly drawn) [Compound 67, 3-((2S)-3-(8-(3′-(aminomethyl)biphenyl-3-ylsulfonyl)-1-oxa-8-azaspiro[4.5]decan-3-ylamino)-2-hydroxypropoxy)-N-methylbenzenesulfonamide] | 0.0231
18 | CNS(=O)(=O)c1cccc(OC[C@@H](O)CNC2COC3(CCN(S(=O)(=O)c4cccc(-c5cn(C)nc5C)c4)CC3)C2)c1 (stereo partly drawn) [Compound 68, 3-((2S)-3-(8-(3-(1,3-dimethyl-1H-pyrazol-4-yl)phenylsulfonyl)-1-oxa-8-azaspiro[4.5]decan-3-ylamino)-2-hydroxypropoxy)-N-methylbenzenesulfonamide] | 0.0369
19 | CCn1cc(-c2cccc(S(=O)(=O)N3CCC4(CC3)CC(NC[C@H](O)COc3cccc(S(=O)(=O)NC)c3)CO4)c2)cn1 (stereo partly drawn) [Compound 69, 3-((2S)-3-(8-(3-(1-ethyl-1H-pyrazol-4-yl)phenylsulfonyl)-1-oxa-8-azaspiro[4.5]decan-3-ylamino)-2-hydroxypropoxy)-N-methylbenzenesulfonamide] | 0.0211
20 | CNS(=O)(=O)c1cccc(OC[C@@H](O)CNC2COC3(CCN(S(=O)(=O)c4cccc(-c5cnn(CCO)c5)c4)CC3)C2)c1 (stereo partly drawn) [Compound 70, 3-((2S)-2-hydroxy-3-(8-(3-(1-(2-hydroxyethyl)-1H-pyrazol-4-yl)phenylsulfonyl)-1-oxa-8-azaspiro[4.5]decan-3-ylamino)propoxy)-N-methylbenzenesulfonamide] | 0.0257
21 | CNS(=O)(=O)c1cccc(OC[C@@H](O)CNC2COC3(CCN(S(=O)(=O)c4cccc(-c5cccc(S(C)(=O)=O)c5)c4)CC3)C2)c1 (stereo partly drawn) [Compound 71, 3-((2S)-2-hydroxy-3-(8-(3′-(methylsulfonyl)biphenyl-3-ylsulfonyl)-1-oxa-8-azaspiro[4.5]decan-3-ylamino)propoxy)-N-methylbenzenesulfonamide] | 0.0312
22 | CNS(=O)(=O)c1cccc(OC[C@@H](O)CNC2COC3(CCN(S(=O)(=O)c4cccc(-c5cccc(C#N)c5)c4)CC3)C2)c1 (stereo partly drawn) [Compound 72, 3-((2S)-3-(8-(3′-cyanobiphenyl-3-ylsulfonyl)-1-oxa-8-azaspiro[4.5]decan-3-ylamino)-2-hydroxypropoxy)-N-methylbenzenesulfonamide] | 0.0287
23 | CNS(=O)(=O)c1cccc(OC[C@@H](O)CNC2COC3(CCN(S(=O)(=O)c4cccc(-c5sc(C)nc5C)c4)CC3)C2)c1 (stereo partly drawn) [Compound 73, 3-((2S)-3-(8-(3-(2,4-dimethylthiazol-5-yl)phenylsulfonyl)-1-oxa-8-azaspiro[4.5]decan-3-ylamino)-2-hydroxypropoxy)-N-methylbenzenesulfonamide] | 0.0221
24 | O=S(=O)(NC1CC1)c1cccc(OC[C@@H](O)CNC2COC3(CCN(S(=O)(=O)c4ccc5ccccc5c4)CC3)C2)c1 (stereo partly drawn) [Compound 74, N-cyclopropyl-3-((2S)-2-hydroxy-3-(8-(naphthalen-2-ylsulfonyl)-1-oxa-8-azaspiro[4.5]decan-3-ylamino)propoxy)benzenesulfonamide] | 0.236

— patent US11987588B2, “Modulators of the beta-3 adrenergic receptor useful for the treatment or prevention of heart failure and disorders related thereto” (Arena Pharmaceuticals, Inc., priority 2017, dated 2024)
